One assay concerns the target T1, WT DP1 (Homo sapiens, UniProt Q13258).
T1 sequence (Q13258 1-359): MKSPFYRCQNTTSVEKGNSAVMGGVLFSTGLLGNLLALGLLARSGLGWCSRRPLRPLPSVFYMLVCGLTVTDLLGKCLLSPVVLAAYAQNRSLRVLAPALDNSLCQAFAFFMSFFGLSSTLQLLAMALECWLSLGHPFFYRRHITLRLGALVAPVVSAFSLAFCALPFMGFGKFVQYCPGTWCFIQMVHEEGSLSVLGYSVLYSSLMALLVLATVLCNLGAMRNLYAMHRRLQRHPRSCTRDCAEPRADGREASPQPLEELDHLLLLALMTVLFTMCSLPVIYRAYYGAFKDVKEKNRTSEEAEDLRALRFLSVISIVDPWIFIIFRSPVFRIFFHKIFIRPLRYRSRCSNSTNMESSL
Nature of the assay: Cyclic AMP GloSensor assay.

The next assay has as its target T2, DP1 R327^8.47A (Homo sapiens, UniProt Q13258, R327A).
T2 sequence (Q13258 1-359 R327A): T1 sequence (Q13258 1-359) with R327A
Nature of the assay: ONE-GO BRET Gs protein activation assay. It is filed as cell-based.

Where a chain is given by its changes, count along the chain named.

On to `Cc1cc(OC[C@@H]2CN(C)c3ccccc3O2)cc(C)c1C(=O)Nc1ccc(Cl)c(CC(=O)O)c1` [ONO2550289, (S)-2-(2-chloro-5-(2,6-dimethyl-4-((4-methyl-3,4-dihydro-2H-benzo[b][1,4]oxazin-2-yl)methoxy)benzamido)phenyl)acetic acid], for which, on WT DP1, a half-maximal response (EC50) required 1.1 nM and the “Effect on basal activity of DP1 in cAMP accumulation assays” value is “fully inhibit the basal activity”.
Taken in the same sequence, the figures for `Cc1cc(OC[C@@H]2CN(C)c3ccccc3O2)cc(C)c1C(=O)Nc1ccc(Cl)c(C2(C(=O)O)CC2)c1` [ONO3030297, (S)-1-(2-chloro-5-(2,6-dimethyl-4-((4-methyl-3,4-dihydro-2H-benzo[b][1,4]oxazin-2-yl)methoxy)benzamido)phenyl)cyclopropane-1-carboxylic acid] were 1.3 nM and “fully inhibit the basal activity”.
In the case of `CCCCC[C@H](O)/C=C/[C@H]1C(=O)C[C@H](O)[C@@H]1C/C=C\CCCC(=O)O` [PGD2, Prostaglandin D2], on DP1 R327^8.47A, the “Reduction of the potency of PGD2 by the R327^8.47A mutation” value is “over 70 fold”. Moreover, on WT DP1, the EC50 came to 6.2 nM.

The record behind these values is PMC12508460 (Nature Communications, 2025).
